{"source": "patent US12509467B2", "about": "(Hoffmann-La Roche Inc., priority 2020, dated 2025)", "biological_target": "T1, human cGAS (residues 161-522) (Homo sapiens, UniProt Q8N884)", "T1 construct": "Recombinantly expressed purified human cGAS (residues 161-522) was used at 25 nM; made in house", "T1 sequence (Q8N884 161-522)": "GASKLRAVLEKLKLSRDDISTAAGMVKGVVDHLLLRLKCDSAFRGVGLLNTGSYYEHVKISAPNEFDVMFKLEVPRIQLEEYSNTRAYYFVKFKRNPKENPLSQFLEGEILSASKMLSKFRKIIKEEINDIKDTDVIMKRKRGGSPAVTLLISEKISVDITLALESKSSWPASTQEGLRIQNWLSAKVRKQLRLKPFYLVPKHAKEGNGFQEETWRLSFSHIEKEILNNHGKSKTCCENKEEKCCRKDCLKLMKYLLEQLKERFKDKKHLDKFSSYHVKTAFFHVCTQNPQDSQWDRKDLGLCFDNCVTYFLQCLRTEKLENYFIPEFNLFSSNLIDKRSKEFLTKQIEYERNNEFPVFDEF", "assay": "cGAS Activity Assay—Malachite Green", "type": "biochemical", "method": "Compounds were tested for cGAS inhibition in a coupled enzymatic assay based on Phosphate detection by Malachite Green. Final assay conditions were 20 mM TRIS pH 7.5 (Applichem), 5 mM MgCl2 (Sigma) and 0.01% BSA (Sigma) supplemented with 80 μM ATP (Sigma), 80 μM GTP (Sigma) and 100 nM Interferon Stimulating DNA (ISD) (Microsynth).\n1 μL of DMSO dilution series was transferred to 32.3 μL reaction buffer, mixed by pipetting up/down, spun for 1 minute at 3000 rpm and was visually inspected for precipitation. 5 μL of 3-fold enzyme stock solution were transferred to an empty 384-well Black/Clear Flat Bottom Polystyrene NBS (Corning) rows 3-24. Rows 1-2 were filled with assay buffer. Plates were spun 10 seconds at 1000 rpm (164×g). 5 μL of compound intermediate dilution was added and mixed by pipetting up/down to rows 3-24. Rows 1-2 were filled with 3.1% DMSO assay buffer. Plates were spun 10 seconds at 1000 rpm (164×g). 5 μL 3-fold Nucleotide/DNA mix was added to all wells to start the reaction. Plates were spun 10 seconds at 1000 rpm (164×g) and incubated for 4 hour at room temperature (RT) in the dark. 5 μL 4 U/mL PPase (Sigma) were added to all wells. Plates spun 10 seconds at 1000 rpm (164×g). 10 μL BioMol green Solution (Enzo Life Sciences) was added to all wells. Plates spun 10 seconds at 1000 rpm (164×g) and incubated 30 minutes at RT in the dark. Absorbance data was collected 620 nm on an EnVision Multilable Reader (Perkin Elmer) and the following measurement settings were used: excitation filter photometric was 620 nm; excitation from the top; measurement height was 1 mm; number of flashes was 30; number of flashes integrated was 1.\nAll plates are checked for abnormalities and outliers in the Blank Control (no protein, row 1) and the Neutral Control (no compound, row 2) are excluded using the 3*SD rule.\nTable 5 provides IC50 values (μM) for cGAS inhibition obtained for particular examples of the present invention as measured by the above-described assay.", "key": {"[1]": {"settings": "cGAS inhibition, 25 nM cGAS, 80 μM ATP, 80 μM GTP, 100 nM ISD, 4 hour at RT, Malachite Green phosphate detection, read-out: IC50 cGAS"}}, "note": "Where two headings read alike, the source gives them in different places."}
{"smiles": "CCCCc1cc(=O)n2nc(NCc3ccc(Cl)cc3Cl)nc2[nH]1", "note": "[Example 35, 5-butyl-2-[(2,4-dichlorophen-yl)methylamino]-4H-[1,2,4]-triazolo-[1,5-a]pyrimidin-7-one]", "values": [{"measurement": "IC50", "result": 1.32, "unit": "µM"}]}
{"smiles": "CCCc1cc(=O)n2nc(NCc3cc(-c4cncnc4)ccc3Cl)nc2[nH]1", "note": "[Example 36, 2-[(2-chloro-5-pyrimidin-5-yl-phenyl)methylamino]-5-propyl-4H-[1,2,4]triazolo[1,5-a]-pyrimidin-7-one]", "values": [{"measurement": "IC50", "setting": "[1]", "result": 0.392, "unit": "µM"}]}
{"smiles": "CCc1cc(=O)n2nc(NCc3ccc(Cl)cc3Cl)nc2[nH]1", "note": "[Example 37, 2-[(2,4-dichlorophenyl)methyl-amino]-5-ethyl-4H-[1,2,4]-triazolo[1,5-a]pyrimidin-7-one]", "values": [{"measurement": "IC50", "setting": "[1]", "result": 5.16, "unit": "µM"}]}
{"smiles": "CCCc1cc(=O)n2nc(NCc3cc(-c4ccncn4)ccc3Cl)nc2[nH]1", "note": "[Example 38, 2-[(2-chloro-5-pyrimidin-4-yl-phenyl)methylamino]-5-propyl-4H-[1,2,4]triazolo[1,5-a]-pyrimidin-7-one]", "values": [{"measurement": "IC50", "setting": "[1]", "result": 0.277, "unit": "µM"}]}
{"smiles": "CCCc1cc(=O)n2nc(NCc3cc(N4CCOCC4)ccc3Cl)nc2[nH]1", "note": "[Example 39, 2-[(2-chloro-5-morpholinophen-yl)methylamino]-5-propyl-4H-[1,2,4]triazolo[1,5-a]pyrimidin-7-one]", "values": [{"measurement": "IC50", "setting": "[1]", "result": 1.04, "unit": "µM"}]}
{"smiles": "CCCc1cc(=S)n2nc(NCc3cc(-c4ccn(C)n4)ccc3Cl)nc2[nH]1", "note": "[Example 40, 2-[[2-chloro-5-(1-methylpyrazol-3-yl)phenyl]methylamino]-5-propyl-4H-[1,2,4]triazolo[1,5-a]-pyrimidine-7-thione]", "values": [{"measurement": "IC50", "result": 0.869, "unit": "µM"}]}
{"smiles": "CCCc1cc(=O)n2nc(NCc3ccc(N4CCOCC4)cc3Cl)nc2[nH]1", "note": "[Example 41, 2-[(2-chloro-4-morpholino-phenyl)methylamino]-5-propyl-4H-[1,2,4]triazolo[1,5-a]-pyrimidin-7-one]", "values": [{"measurement": "IC50", "setting": "[1]", "result": 0.701, "unit": "µM"}]}
{"smiles": "CCCc1cc(=O)n2nc(NCc3ccc(N4CCOCC4)cc3)nc2[nH]1", "note": "[Example 42, 2-[(4-morpholinophenyl)meth-amino]-5-propyl-4H-[1,2,4]-triazolo[1,5-a]pyrimidin-7-one]", "values": [{"measurement": "IC50", "setting": "[1]", "result": 2.13, "unit": "µM"}]}
{"smiles": "CCCc1cc(=O)n2nc(NCc3cc(-c4ncccn4)ccc3Cl)nc2[nH]1", "note": "[Example 43, 2-[(2-chloro-5-pyrimidin-2-yl-phenyl)methylamino]-5-propyl-4H-[1,2,4]triazolo[1,5-a]-pyrimidin-7-one]", "values": [{"measurement": "IC50", "setting": "[1]", "result": 0.326, "unit": "µM"}]}
{"smiles": "CCCCc1cc(=O)n2nc(NCc3cc(-c4ccccc4)nn3C)nc2[nH]1", "note": "[Example 44, 5-butyl-2-[(2-methyl-5-phenyl-pyrazol-3-yl)methylamino]-4H-[1,2,4]triazolo[1,5-a]pyrimidin-7-one]", "values": [{"measurement": "IC50", "setting": "[1]", "result": 6.57, "unit": "µM"}]}
{"smiles": "CCCCc1cc(=O)n2nc(NCc3cnn(-c4cnccn4)c3)nc2[nH]1", "note": "[Example 45, 5-butyl-2-[(1-pyrazin-2-ylpyr-azol-4-yl)methylamino]-4H-[1,2,4]triazolo[1,5-a]pyrimidin-7-one]", "values": [{"measurement": "IC50", "setting": "[1]", "result": 3.53, "unit": "µM"}]}
{"smiles": "CCCCc1cc(=O)n2nc(NCc3cc(-c4ccccc4)on3)nc2[nH]1", "note": "[Example 46, 5-butyl-2-[(5-phenylisoxazol-3-yl)methylamino]-4H-[1,2,4]-triazolo[1,5-a]pyrimidin-7-one-5-butyl-2-[(5-phenylisoxazol-3-yl)methylamino]-4H-[1,2,4]-triazolo[1,5-a]pyrimidin-7-one]", "values": [{"measurement": "IC50", "setting": "[1]", "result": 0.805, "unit": "µM"}]}
{"smiles": "CCCCc1cc(=O)n2nc(NCc3ccn(-c4ccccc4)n3)nc2[nH]1", "note": "[Example 47, 5-butyl-2-[(1-phenylpyrazol-3-yl)methylamino]-4H-[1,2,4]-triazolo[1,5-a]pyrimidin-7-one]", "values": [{"measurement": "IC50", "setting": "[1]", "result": 2.01, "unit": "µM"}]}
{"smiles": "COCCCc1cc(=O)n2nc(NCc3cc(-c4ccn(C)n4)ccc3Cl)nc2[nH]1", "note": "[Example 48, 2-[[2-chloro-5-(1-methylpyrazol-3-yl)phenyl]methylamino]-5-(3-methoxypropyl)-4H-[1,2,4]-triazolo[1,5-a]pyrimidin-7-one]", "values": [{"measurement": "IC50", "setting": "[1]", "result": 0.603, "unit": "µM"}]}
{"smiles": "CCCCc1cc(=O)n2nc(NCc3cc(C4CC4)on3)nc2[nH]1", "note": "[Example 49, 5-butyl-2-[(5-cyclopropylisox-azol-3-yl)methylamino]-4H-[1,2,4]triazolo[1,5-a]pyrimidin-7-one]", "values": [{"measurement": "IC50", "setting": "[1]", "result": 4.66, "unit": "µM"}]}
{"smiles": "Cn1ccc(-c2ccc(Cl)c(CNc3nc4[nH]c(CCCC(F)F)cc(=O)n4n3)c2)n1", "note": "[Example 50, 2-[[2-chloro-5-(1-methylpyrazol-3-yl)phenyl]methylamino]-5-(4,4-difluorobutyl)-4H-[1,2,4]-triazolo[1,5-a]pyrimidin-7-one]", "values": [{"measurement": "IC50", "setting": "[1]", "result": 0.263, "unit": "µM"}]}
{"smiles": "COCCc1cc(=O)n2nc(NCc3cc(-c4ccn(C)n4)ccc3Cl)nc2[nH]1", "note": "[Example 51, 2-[[2-chloro-5-(1-methylpyrazol-3-yl)phenyl]methylamino]-5-(2-methoxyethyl)-4H-[1,2,4]-triazolo[1,5-a]pyrimidin-7-one]", "values": [{"measurement": "IC50", "setting": "[1]", "result": 0.491, "unit": "µM"}]}
{"smiles": "O=c1cc(CCCC(F)F)[nH]c2nc(NCc3ccc(Cl)cc3Cl)nn12", "note": "[Example 52, 2-[(2,4-dichlorophenyl)methyl-amino]-5-(4,4-difluorobutyl)-4H-[1,2,4]triazolo[1,5-a]-pyrimidin-7-one]", "values": [{"measurement": "IC50", "result": 3.28, "unit": "µM"}]}
{"smiles": "CCCc1cc(=O)n2nc(NCc3ccc(OC(C)C)cc3)nc2[nH]1", "note": "[Example 53, 2-[(4-propan-2-yloxyphenyl)-methylamino]-5-propyl-4H-[1,2,4]triazolo[1,5-a]pyrimidin-7-one]", "values": [{"measurement": "IC50", "setting": "[1]", "result": 2.66, "unit": "µM"}]}
{"smiles": "CCCc1cc(=O)n2nc(NCc3ccc(OCC)cc3)nc2[nH]1", "note": "[Example 54, 2-[(4-ethoxyphenyl)methyl-amino]-5-propyl-4H-[1,2,4]-triazolo[1,5-a]pyrimidin-7-one]", "values": [{"measurement": "IC50", "setting": "[1]", "result": 2.2, "unit": "µM"}]}
{"smiles": "CCCc1cc(=O)n2nc(NCc3ccc(C(C)C)cc3)nc2[nH]1", "note": "[Example 55, 2-[(4-propan-2-ylphenyl)meth-ylamino]-5-propyl-4H-[1,2,4]-triazolo[1,5-a]pyrimidin-7-one]", "values": [{"measurement": "IC50", "result": 1.59, "unit": "µM"}]}
{"smiles": "CCCc1cc(=O)n2nc(NC(C)c3ccc(-c4ccccc4)cc3)nc2[nH]1", "note": "(stereo not shown) [Example 56, 2-[1-(4-phenylphenyl)ethyl-amino]-5-propyl-4H-[1,2,4]-triazolo[1,5-a]pyrimidin-7-one]", "values": [{"measurement": "IC50", "result": 2.87, "unit": "µM"}]}
{"smiles": "CCCc1cc(=O)n2nc(NCc3cc(-c4ccn(C)n4)ccc3Cl)nc2[nH]1", "note": "[Example 57, 2-[[2-chloro-5-(1-methylpyrazol-3-yl)phenyl]methylamino]-5-propyl-4H-[1,2,4]triazolo[1,5-a]pyrimidin-7-one]", "values": [{"measurement": "IC50", "result": 0.533, "unit": "µM"}]}
{"smiles": "CCCc1cc(=O)n2nc(NCc3ccc(Cl)cc3Cl)nc2[nH]1", "note": "[Example 58, 2-[(2,4-Dichlorophenyl)methylamino]-5-propyl-4H-[1,2,4]triazolo[1,5-a]pyrimidin-7-one]", "values": [{"measurement": "IC50", "setting": "[1]", "result": 1.72, "unit": "µM"}]}
{"smiles": "O=c1cc(C2CC2)[nH]c2nc(NCc3ccc(Cl)cc3Cl)nn12", "note": "[Example 59, 5-cyclopropyl-2-[(2,4-dichloro-phenyl)methylamino]-4H-[1,2,4]triazolo[1,5-a]pyrimidin-7-one]", "values": [{"measurement": "IC50", "setting": "[1]", "result": 3.78, "unit": "µM"}]}
{"smiles": "O=c1cc(C(F)(F)F)[nH]c2nc(NCc3ccc(Cl)cc3Cl)nn12", "note": "[Example 60, 2-[(2,4-dichlorophenyl)methyl-amino]-5-(trifluoromethyl)-4H-[1,2,4]triazolo[1,5-a]-pyrimidin-7-one]", "values": [{"measurement": "IC50", "setting": "[1]", "result": 1.25, "unit": "µM"}]}
{"smiles": "CC(C)c1cc(=O)n2nc(NCc3ccc(Cl)cc3Cl)nc2[nH]1", "note": "[Example 61, 2-[(2,4-dichlorophenyl)methyl-amino]-5-isopropyl-4H-[1,2,4]-triazolo[1,5-a]pyrimidin-7-one]", "values": [{"measurement": "IC50", "result": 2.74, "unit": "µM"}]}
{"smiles": "CCCc1cc(=O)n2nc(NCc3ccc(Cl)cc3F)nc2[nH]1", "note": "[Example 62]", "values": [{"measurement": "IC50", "result": 4.04, "unit": "µM"}]}
{"smiles": "O=c1cc(CC2CC2)[nH]c2nc(NCc3ccc(Cl)cc3Cl)nn12", "note": "[Example 63, 5-(cyclopropylmethyl)-2-[(2,4-dichlorophenyl)methylamino]-4H-[1,2,4]triazolo[1,5-a]-pyrimidin-7-one]", "values": [{"measurement": "IC50", "setting": "[1]", "result": 3.59, "unit": "µM"}]}
{"smiles": "CC(C)Cc1cc(=O)n2nc(NCc3ccc(Cl)cc3Cl)nc2[nH]1", "note": "[Example 64, 2-[(2,4-dichlorophenyl)methyl-amino]-5-isobutyl-4H-[1,2,4]-triazolo[1,5-a]pyrimidin-7-one]", "values": [{"measurement": "IC50", "result": 3.33, "unit": "µM"}]}
{"smiles": "O=c1cc(CC2CCC2)[nH]c2nc(NCc3ccc(Cl)cc3Cl)nn12", "note": "[Example 65]", "values": [{"measurement": "IC50", "setting": "[1]", "result": 1.59, "unit": "µM"}]}
{"smiles": "CCCc1cc(=O)n2nc(NCc3ccc(Cl)cc3C)nc2[nH]1", "note": "[Example 66, 2-[(4-chloro-2-methylphenyl)-methylamino]-5-propyl-4H-[1,2,4]triazolo[1,5-a]pyrimidin-7-one]", "values": [{"measurement": "IC50", "setting": "[1]", "result": 9.28, "unit": "µM"}]}
{"smiles": "CCCc1cc(=O)n2nc(NCc3ccc(-c4ccccc4)cc3)nc2[nH]1", "note": "[Example 67, 2-[(4-phenylphenyl)methyl-amino]-5-propyl-4H-[1,2,4]-triazolo[1,5-a]pyrimidin-7-one]", "values": [{"measurement": "IC50", "setting": "[1]", "result": 0.672, "unit": "µM"}]}
{"smiles": "O=c1cc(CC(F)(F)F)[nH]c2nc(NCc3ccc(Cl)cc3Cl)nn12", "note": "[Example 68, 2-[(2,4-dichlorophenyl)meth-ylamino]-5-(2,2,2-trifluoro-ethyl)-4H-[1,2,4]triazolo[1,5-a]pyrimidin-7-one]", "values": [{"measurement": "IC50", "setting": "[1]", "result": 4.44, "unit": "µM"}]}
